From patent US20260207585A1, “METHODS AND COMPOSITIONS FOR THE TREATMENT OF PARKINSON'S DISEASE, HUNTINGTON'S DISEASE, AMYOTROPHIC LATERAL SCLEROSIS, AND LEARNING DISORDERS” (Cedars-Sinai Medical Center, priority 2022, published 2026)

Assays:
DNMT3a = DNMT3a (Homo sapiens, UniProt Q9Y6K1); test: Methyltransferase inhibition panel: DNMT3a; format: biochemical; details: NT1721 20 μM; substrate Lambda DNA 0.0075 mg/mL
Protocol: The ability of ETP69 to inhibit methyltransferases was tested.

dendritic spines = test: Golgi-Cox staining of brain, dendritic spine quantification; format: in vivo, mice
Excerpt: The brain of 18-month old mice was stained with the Golgi-Cox method to detect the cytoarchitecture and morphology of neurons. FIG. 1A depicts representative images of the cingulate cortex (cc) of mice administered DMSO or ETP69. FIG. 1B depicts a representative hippocampus. FIG. 1C depicts a representative neuron from a DMSO treated and ETP69 treated hippocampus. FIG. 1D is a schematic of the quantification of neuronal spines.
The brains were stained with the Golgi-Cox method to detect the cytoarchitecture and morphology of neurons. Representative images are shown of mice treated with DMSO (FIG. 10A-10C) and ETP69 (FIG. 10D-10F). The number of dendritic spines are quantified. […] Further, ETP69 administration reduced epigenetic H3K9me3 repression mark in cell-specific manners. H3K9 expression was reduced in neurons (FIGS. 11A-11B), astrocytes (FIGS. 11C-11D), and microglia macrophages (FIGS. 11E-11F).
Loss of synapses and dendritic spine abnormalities are associated with cognitive decline. To analyze these features in old mice administered ETP69, Golgi-Cox neuronal staining and synaptic marker staining was performed in cerebral cortices and hippocampi. Dendritic spines were classified as thin (filopodia-like and long-thin), stubby, or mushroom spines according to their size and shape, and quantified the spine density from high-magnification photographs.

H3K9me3 = H3K9me3 staining in cingulate/cerebral cortex and hippocampus; format: in vivo, mice; design: reduction of H3K9me3 IR area / reduction of hippocampal H3K9me3 levels: concentration or dose not given beside the values; details: for reduction of hippocampal H3K9me3 levels: 15 days after injection; for decrease in neuronal H3K9me3 irradiance: cingulate cortex; for reduction of H3K9me3 IR area: cortex
Protocol: The experimental protocol is depicted in FIG. 2A. Mice were treated with ETP69 or DMSO. After 2 days, they were tested on the color X-maze. At day 12, they were tested on the Barnes maze. On day 14, they were tested for fear conditioning. Brain tissue was isolated as depicted for analysis of H3K9me3 staining on days 4 and 15, as depicted in FIG. 2B-2D. Levels of H3K9me3 correlated with the percent of alterations at day 4 as depicted in FIG. 2E. At day 15, H3K9me3 was decreased in mice treated with ETP69 as compared to mice treated with DMSO. Levels of H3K9me3 was decreased in both the cingulate cortex and the hippocampus at 4 and 15 days (FIGS. 2J-2M).
The effects of single and repeated ETP69 injections in mice were tested. The experimental timeline is depicted in FIG. 5. Three parallel injection conditions were tested: a single ETP69 condition, a boosted ETP69 injection, and repeated ETP69 injections. The single injection mice received one injection of ETP69 or DMSO at Day 0. The mice that received a boosted injection received one injection of ETP69 or DMSO at day 0 and one injection at day 9. The mice that received repeated injections received 11 injections of ETP69 or DMSO at day 0 or day 9. Both wildtype and AD model (APP/PS1-transgenic) mice were tested.
AD+ brains were stained for neuronal H3K9me3 and DAPI. Representative images of the cingulate cortex and hippocampus of DMSO and ETP69 treated mice are depicted in FIGS. 8A and 8C, respectively. Neuronal H3K9me3 irradiance in the cingulate cortex is quantified in FIG. 8B. […] H3K9me3 staining in the DG correlated with performance in the Barnes Test, while K3K9me3 staining in the hippocampus was correlated with performance in the fear conditioning test.
The effects of ETP69 on cerebral H3K9me3 levels was tested in old mice, in both a neurodegenerative model and WT siblings. The levels of brain H3K9me3 at days 4 (short-term) and 15 (long-term) following i.p. ETP69 injection (S regimen cohorts) were measured. […] These findings indicate that a single dose of ETP69 is sufficient to sustainably reduce H3K9me3 in the brains of old WT and neurodegenerative mice. Consistent with the observations in 18-month-old mice, ETP69 mitigated neuroinflammation, including by reduced ionized calcium-binding adaptor molecule 1 (Iba-1)^+ microgliosis in neurodegenerative mice (40%, p=0.0021; FIG. 16D).

[1] = 18-month old mice, cingulate cortex (cc) and hippocampus, vs DMSO
[2] = old (18-month-old) mice, 10 mg/kg i.p.

Sequence of DNMT3a (Q9Y6K1 whole entry, looked up): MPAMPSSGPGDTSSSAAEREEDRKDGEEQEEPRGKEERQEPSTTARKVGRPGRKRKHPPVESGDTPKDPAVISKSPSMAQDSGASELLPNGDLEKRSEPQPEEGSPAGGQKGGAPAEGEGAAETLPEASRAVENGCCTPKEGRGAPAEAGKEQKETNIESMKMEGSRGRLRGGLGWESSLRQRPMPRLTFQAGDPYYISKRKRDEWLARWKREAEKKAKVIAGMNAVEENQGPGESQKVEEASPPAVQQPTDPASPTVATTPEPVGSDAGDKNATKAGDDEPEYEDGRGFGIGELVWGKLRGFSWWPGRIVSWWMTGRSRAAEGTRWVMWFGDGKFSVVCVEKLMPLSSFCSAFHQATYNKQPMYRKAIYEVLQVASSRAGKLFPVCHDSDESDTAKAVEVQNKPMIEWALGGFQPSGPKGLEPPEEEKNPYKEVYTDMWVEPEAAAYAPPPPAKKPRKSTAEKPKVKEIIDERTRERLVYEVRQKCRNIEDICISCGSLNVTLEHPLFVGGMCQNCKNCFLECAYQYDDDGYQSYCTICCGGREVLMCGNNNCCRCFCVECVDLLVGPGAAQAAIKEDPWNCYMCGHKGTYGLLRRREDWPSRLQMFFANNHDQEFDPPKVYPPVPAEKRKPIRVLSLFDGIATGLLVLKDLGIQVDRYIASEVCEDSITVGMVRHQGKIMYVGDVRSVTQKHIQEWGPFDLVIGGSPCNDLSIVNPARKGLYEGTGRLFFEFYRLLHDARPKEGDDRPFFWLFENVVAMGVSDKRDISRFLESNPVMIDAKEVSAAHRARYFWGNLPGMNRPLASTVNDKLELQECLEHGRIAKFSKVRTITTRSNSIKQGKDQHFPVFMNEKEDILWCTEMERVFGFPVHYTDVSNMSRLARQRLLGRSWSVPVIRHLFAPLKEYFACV

CN1C(=O)[C@@]23C[C@](C)(C#N)[C@H](c4ccc5c(c4)OCO5)N2C(=O)[C@]1(C)SS3 (racemic) [ETP69, Rac-(3S,6S,7S,8aS)-6-(benzo[d][1,3]dioxol-5-yl)-2,3,7-trimethyl-1,4-dioxohexahydro-6H-3,8a-epidithiopyrrolo[1,2-a]pyrazine-7-carbonitrile]
Enzyme % Activity (relative to DMSO controls) Data 1 (DNMT3a): 76.81% | Enzyme % Activity (relative to DMSO controls) Data 2 (DNMT3a): 78.12% | dendritic spines (dendritic spines; [1]): increase | thin spines (dendritic spines; [1]): increase | number of dendritic spines (dendritic spines; Example 4 mice, cingulate cortex and hippocampus, vs DMSO): significantly increased | mushroom-to-total spine ratio (dendritic spines; [2]): lower | thin-to-total spine ratio (dendritic spines; [2]): higher | increase in the number of dendritic spines (dendritic spines; old (18-month-old) wildtype and neurodegenerative mice, hippocampus and cerebral cortex, 10 mg/kg i.p., vs DMSO control): 1.2 fold | reduction of hippocampal H3K9me3 levels (H3K9me3; CA, WT mice): 36% | reduction of hippocampal H3K9me3 levels (H3K9me3; CA, neurodegenerative mice): 54% | reduction of hippocampal H3K9me3 levels (H3K9me3; DG, neurodegenerative mice): 42% | Levels of H3K9me3 (H3K9me3; cingulate cortex and hippocampus, 4 and 15 days): decreased | decrease in neuronal H3K9me3 irradiance (H3K9me3; AD+ mice, day 4): 40% | decrease in neuronal H3K9me3 irradiance (H3K9me3; AD+ mice, day 14): 40% | decrease in neuronal H3K9me3 irradiance (H3K9me3; wildtype mice, day 4): 27% | reduction of H3K9me3 IR area (H3K9me3; WT old mice, 4 days after single i.p. injection): 27% | reduction of H3K9me3 IR area (H3K9me3; neurodegenerative mice, after 15 days): 40% | reduction of H3K9me3 IR area (H3K9me3; neurodegenerative old mice, 4 days after single i.p. injection): 40% | H3K9me3 (H3K9me3; day 15, vs mice treated with DMSO): decreased | decrease in H3K9me3 irradiance (H3K9me3; hippocampus, AD+ mice, vs AD+ mice administered DMSO): 47% | H3K9 expression (H3K9me3 repression mark), cell-specific (H3K9me3; neurons, astrocytes, and microglia macrophages, AD+ mice): reduced
